From ChEMBL document CHEMBL4406826, “Discovery of δ-sultone-fused pyrazoles for treating Alzheimer's disease: Design, synthesis, biological evaluation and SAR studies” (Eur J Med Chem, 2019)
Active and inactive are the calls of the source.

Experiments:
Cholinesterase [1] = target: T1, Cholinesterase (Equus caballus, UniProt P81908); assay: Inhibition of equine serum BuChE using butyrylthiocholine iodide as substrate preincubated with enzyme for 20 mins followed by substrate addition by Ellman's method
T1 sequence (P81908 whole entry): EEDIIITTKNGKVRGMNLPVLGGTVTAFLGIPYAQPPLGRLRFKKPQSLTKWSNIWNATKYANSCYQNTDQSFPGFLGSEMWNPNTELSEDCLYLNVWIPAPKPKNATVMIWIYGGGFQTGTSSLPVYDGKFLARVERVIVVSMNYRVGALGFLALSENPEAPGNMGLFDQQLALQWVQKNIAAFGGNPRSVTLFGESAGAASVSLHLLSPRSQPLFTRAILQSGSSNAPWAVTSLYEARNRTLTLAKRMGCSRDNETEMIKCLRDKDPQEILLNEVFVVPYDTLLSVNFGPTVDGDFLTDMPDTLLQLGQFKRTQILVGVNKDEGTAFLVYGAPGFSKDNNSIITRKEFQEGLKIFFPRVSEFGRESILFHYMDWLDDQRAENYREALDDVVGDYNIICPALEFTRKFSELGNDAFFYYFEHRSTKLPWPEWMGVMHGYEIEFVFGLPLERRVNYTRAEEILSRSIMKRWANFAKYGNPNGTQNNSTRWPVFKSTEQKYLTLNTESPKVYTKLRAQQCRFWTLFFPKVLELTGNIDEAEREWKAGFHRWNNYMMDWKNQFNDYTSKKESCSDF

[2] = Octanol-PBS buffer partition coefficient, log P of the compound incubated for 24 hrs measured at pH 7.4 by shake-flask method; format: physicochemical
[3] = target: Acetylcholinesterase (Electrophorus electricus) (UniProt O42275); assay: Inhibition of electric eel AChE at 20 uM using acetylthiocholine iodide as substrate preincubated with enzyme for 20 mins followed by substrate addition by Ellman's method relative to control
Chain of Acetylcholinesterase (Electrophorus electricus) (O42275 24-633 limits assumed): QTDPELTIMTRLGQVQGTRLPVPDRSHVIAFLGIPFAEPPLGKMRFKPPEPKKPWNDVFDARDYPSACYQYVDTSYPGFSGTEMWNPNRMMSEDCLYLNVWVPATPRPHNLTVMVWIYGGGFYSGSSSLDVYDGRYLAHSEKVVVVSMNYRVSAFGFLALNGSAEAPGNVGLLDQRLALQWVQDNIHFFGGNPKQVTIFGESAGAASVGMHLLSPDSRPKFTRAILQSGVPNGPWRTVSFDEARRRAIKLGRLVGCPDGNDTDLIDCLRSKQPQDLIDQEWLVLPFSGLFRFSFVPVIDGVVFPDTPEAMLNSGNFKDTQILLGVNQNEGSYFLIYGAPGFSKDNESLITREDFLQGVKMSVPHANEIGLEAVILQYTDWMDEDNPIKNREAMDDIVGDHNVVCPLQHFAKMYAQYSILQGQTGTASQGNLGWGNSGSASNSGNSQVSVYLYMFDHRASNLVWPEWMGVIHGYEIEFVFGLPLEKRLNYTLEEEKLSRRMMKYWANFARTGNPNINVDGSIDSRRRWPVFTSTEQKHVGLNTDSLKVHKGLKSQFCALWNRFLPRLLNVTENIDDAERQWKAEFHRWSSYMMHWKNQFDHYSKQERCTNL

[4] = target: Cholinesterase (Equus caballus) (UniProt P81908); assay: Reversible inhibition of equine serum BChE at 0.4 to 1 uM using varying levels of butyrylcholine iodide as substrate
Chain of Cholinesterase (Equus caballus) (P81908 whole entry): as the sequence (P81908 whole entry) above

Acetylcholinesterase = Acetylcholinesterase (Electrophorus electricus, UniProt O42275); assay: Inhibition of electric eel AChE using acetylthiocholine iodide as substrate preincubated with enzyme for 20 mins followed by substrate addition by Ellman's method
Chain of Acetylcholinesterase (O42275 whole entry): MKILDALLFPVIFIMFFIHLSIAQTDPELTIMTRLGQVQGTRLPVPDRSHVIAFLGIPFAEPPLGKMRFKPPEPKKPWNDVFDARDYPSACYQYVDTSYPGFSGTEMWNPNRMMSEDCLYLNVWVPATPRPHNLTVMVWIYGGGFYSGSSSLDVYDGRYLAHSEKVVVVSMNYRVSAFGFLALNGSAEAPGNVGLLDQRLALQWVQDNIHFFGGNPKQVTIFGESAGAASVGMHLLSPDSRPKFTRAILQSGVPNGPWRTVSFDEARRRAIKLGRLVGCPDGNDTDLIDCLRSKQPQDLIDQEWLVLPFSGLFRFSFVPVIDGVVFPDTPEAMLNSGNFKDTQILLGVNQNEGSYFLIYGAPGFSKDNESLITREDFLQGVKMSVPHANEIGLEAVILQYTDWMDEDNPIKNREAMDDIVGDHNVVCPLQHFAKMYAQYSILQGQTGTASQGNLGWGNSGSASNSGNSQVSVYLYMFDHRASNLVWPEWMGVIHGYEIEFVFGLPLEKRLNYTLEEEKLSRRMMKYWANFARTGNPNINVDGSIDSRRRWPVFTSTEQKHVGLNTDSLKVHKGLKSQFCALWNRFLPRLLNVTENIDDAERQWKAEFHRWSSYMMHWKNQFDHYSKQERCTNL

Cholinesterase [5] = target: T1, Cholinesterase; assay: Inhibition of equine serum BChE using varying levels of butyrylthiocholine iodide as substrate by Line weaver Burk reciprocal plot analysis
[6] = Cytotoxicity against human HepG2 cells assessed as cell viability at 5 to 50 uM measured after 24 hrs by MTT assay; format: cell-based; conditions: read-out: Activity
[7] = Cytotoxicity against rat PC12 cells assessed as cell viability at 5 to 50 uM measured after 24 hrs by MTT assay; format: cell-based, PC-12; conditions: read-out: Activity
[8] = target: Cholinesterase (Equus caballus) (UniProt P81908); assay: Mixed inhibition of equine serum BChE assessed as decrease in Vmax at 1 to 5 uM using varying levels of butyrylthiocholine iodide as substrate by Line weaver Burk reciprocal plot analysis
[9] = target: Cholinesterase (Equus caballus) (UniProt P81908); assay: Mixed inhibition of equine serum BChE assessed as increase in substrate Km at 1 to 5 uM using varying levels of butyrylthiocholine iodide as substrate by Line weaver Burk reciprocal plot analysis
PC-12 = assay: Neuroprotective activity against H2O2-induced cytotoxicity in rat PC12 cells assessed as increase in cell viability at 10 to 25 uM pretreated for 3 hrs followed by H2O2 stimulation in continuous presence of compound for 24 hrs by MTT assay relative to control; format: functional
[10] = target: Cholinesterase (Equus caballus) (UniProt P81908); assay: Non-competitive inhibition of equine serum BChE at 1 to 5 uM using varying levels of butyrylcholine iodide as substrate by Line weaver Burk reciprocal plot analysis
[11] = target: Cholinesterase (Equus caballus) (UniProt P81908); assay: Mixed inhibition of equine serum BChE assessed as increase in substrate Km at 0.5 to 2 uM using varying levels of butyrylthiocholine iodide as substrate by Line weaver Burk reciprocal plot analysis
[12] = target: Cholinesterase (Equus caballus) (UniProt P81908); assay: Mixed inhibition of equine serum BChE assessed as decrease in Vmax at 0.5 to 2 uM using varying levels of butyrylthiocholine iodide as substrate by Line weaver Burk reciprocal plot analysis

Compound | IC50 (Cholinesterase [1]) [µM] | logD at 24 h [2] | inhibition [3] | other results
O=S1(=O)CCc2c(C3CC3)nn(-c3ccccc3F)c2O1 | 0.199 | 2.09 | inactive | inhibition [4]: Active
CC1=NN2C(=O)Oc3c(Cl)cc(Cl)cc3C2C1 (configuration not stated) | – | – | – | IC50 (Acetylcholinesterase): > 20 µM
COc1ccc(-c2nn(-c3ccccc3F)c3c2C(c2ccc(Br)c(C)c2)CS(=O)(=O)O3)cc1 (configuration not stated) | 4.33 | 2.91 | inactive | –
COc1cccc(C2CS(=O)(=O)Oc3c2c(C2CC2)nn3-c2ccccc2F)c1 (configuration not stated) | 3.47 | 2.01 | inactive | –
O=S1(=O)CC(c2cccc(C(F)(F)F)c2)c2c(C3CC3)nn(-c3cccc(F)c3)c2O1 (configuration not stated) | 4.62 | 2.73 | inactive | –
COc1ccc(-c2nn(-c3ccccc3Cl)c3c2CCS(=O)(=O)O3)cc1 | 0.42 | 3.04 | inactive | Ki (Cholinesterase [5]): 0.06 µM; viability at 24 h, 50 µM [6]: > 90%; viability at 24 h, up to 50 µM [7]: > 90%; inhibition [8]: Active; inhibition [9]: Active; Activity (PC-12): >70%; inhibition [10]: Active
COc1ccc(-c2nn(-c3ccccc3F)c3c2CCS(=O)(=O)O3)cc1 | 0.46 | 2.62 | inactive | inhibition [11]: Active; Ki (Cholinesterase [5]): 0.145 µM; inhibition [12]: Active; viability at 24 h, 50 µM [6]: > 90%; viability at 24 h, up to 50 µM [7]: > 90%; Activity (PC-12): >70%; inhibition [4]: Active
O=S1(=O)CC(c2ccc(F)cc2)c2c(C3CC3)nn(-c3ccccc3Cl)c2O1 (configuration not stated) | 6.02 | 2.04 | inactive | –
Cc1nn(-c2ccccc2)c2c1C(/C=C/c1cccc(C#N)c1)CS(=O)(=O)O2 (configuration not stated) | 10.6 | – | – | IC50 (Acetylcholinesterase): 16.3 µM
Cc1cc(C2CS(=O)(=O)Oc3c2c(C2CC2)nn3-c2ccccc2F)ccc1Br (configuration not stated) | 5.71 | 2.72 | inactive | –
